Source: patent US8183260B2, “5H-thioeno(3,4-c)pyrrole-4,6-dione derivatives and their use as tumor necrosis factor inhibitors” (Tianjin Hemay Bio-Tech Co., Ltd., priority 2005, dated 2012)

Test system: TNFα released by PBMCs
Assay: Inhibition of TNFα release from monocytes (PBMC) stimulated by LPS, ELISA
Format: cell-based
Details: Homo sapiens, LPS 0.1 μg/mL, 20 hr incubation; for IC50: concentration giving 50% TNFα inhibition; for inhibition at 100 µM: test concentration 100 μM; for inhibition at 100 µM / inhibition at 3 µM: read-out: Degree of inhibition (%); for inhibition at 3 µM: test concentration 3.0 μM
Procedure: Cytokine TNFα released by PBMCs in the peripheral blood after […] (LPS) stimulation in vitro was studied. The followings are experimental protocols for studying cytokine TNFα released by PBMCs, which are inhibited by compounds of the invention.
PBMCs were obtained from blood of at least three volunteers after heparin treatment, using gradient extraction. PBMCs were collected and washed three times with a 1640 medium (10% calf serum, 2 mM L-glutamine, […], 50 μg/mL streptomycin, 50 U/mL penicillin), then placed into wells of a 24-well cell culture plate. The concentration was adjusted to 1×10^6 cells/mL with 1640 culture medium. […] The resultant solution was added to the cell culture medium and the culture plate was placed in a CO2 incubator (5% CO2, 90% humidity) for 1 hour. Then, LPS (Sigma) was added and its concentration was adjusted to 0.1 μg/mL (except for the control).
After a 20 hr incubation period, the content of TNFα in supernatant of the above PBMC culture medium was assayed by ELISA kit (America Genzyme Co), using standard method. The measured value of the control well (not treated with active components), and the measured value of the test wells containing the test compounds was used to calculate the TNFα inhibition rate. The concentration of compounds giving a 50% TNFα inhibition (IC50 value) was calculated using nonlinear regression analysis. Each concentration was determined twice and an average value was calculated.

SMILES | IC50 [nM] | inhibition at 100 µM [%] | inhibition at 3 µM [%]
O=C1CCC(N2C(=O)c3ccccc3C2=O)C(=O)N1 (stereo not shown) [Thalidomide, reference compound] | 183000 | 22 | –
CN1C(=O)CCC(N2C(=O)c3csc(N)c3C2=O)C1=O (stereo not shown) [Example 31, 1-amino-5-(1-methyl-2,6-dioxopiperidin-3-yl)-5H-thieno(3,4-c)pyrrole-4,6-dione] | 350 | – | 71
CC1(N2C(=O)c3csc(N)c3C2=O)CCC(=O)NC1=O (stereo not shown) [Example 27, 1-amino-5-(3-methyl-2,6-dioxopiperidin-3-yl)-5H-thieno(3,4-c)pyrrole-4,6-dione] | 50 | – | 84
O=C1CCC(N2C(=O)c3cscc3C2=O)C(=O)N1 (stereo not shown) [Example 10, 5-(2,6-dioxopiperidin-3-yl)-5H-thieno(3,4-c)pyrrole-4,6-dione] | – | 32 | –
O=C1CCC(N2C(=O)c3csc([N+](=O)[O-])c3C2=O)C(=O)N1 (stereo not shown) [Example 18, 1-nitro-5-(2,6-dioxopiperidin-3-yl)-5H-thieno(3,4-c)pyrrole-4,6-dione] | – | 28 | –
Nc1scc2c1C(=O)N(C1CCC(=O)NC1=O)C2=O (stereo not shown) [Example 19, 1-amino-5-(2,6-dioxopiperidin-3-yl)-5H-thieno(3,4-c)pyrrole-4,6-dione] | 6 | – | 95
CNc1scc2c1C(=O)N(C1CCC(=O)NC1=O)C2=O (stereo not shown) [Example 22, 1-methylamino-5-(2,6-dioxopiperidin-3-yl)-5H-thieno(3,4-c)pyrrole-4,6-dione] | 500 | – | 62
COCCN1C(=O)CCC(N2C(=O)c3cscc3C2=O)C1=O (stereo not shown) [Example 16, 5-(1-(2-methoxyethyl)-2,6-dioxopiperidin-3-yl)-5H-thieno(3,4-c)pyrrole-4,6-dione] | – | 28 | –
COC(=O)CN1C(=O)CCC(N2C(=O)c3cscc3C2=O)C1=O (stereo not shown) [Example 15, 5-(1-methoxycarbonylmethyl-2,6-dioxopiperidin-3-yl)-5H-thieno(3,4-c)pyrrole-4,6-dione] | – | 18 | –
CN1C(=O)CCC(N2C(=O)c3cscc3C2=O)C1=O (stereo not shown) [Example 13, 5-(1-methyl-2,6-dioxopiperidin-3-yl)-5H-thieno(3,4-c)pyrrole-4,6-dione] | – | 20 | –
CC(=O)Nc1scc2c1C(=O)N(C1CCC(=O)NC1=O)C2=O (stereo not shown) [Example 24, 1-acetamido-5-(2,6-dioxopiperidin-3-yl)-5H-thieno(3,4-c)pyrrole-4,6-dione] | – | – | 48
